Measured values reported in article PMC5983305, “Bioactive Pyridone Alkaloids from a Deep-Sea-Derived Fungus Arthrinium sp. UJNMF0008” (Marine Drugs, 2018).

Assays:
[1] = tested on: Mycobacterium smegmatis ATCC 607; test: Antimicrobial assay, liquid growth inhibition in 96-well microplates; type: cell-based; settings: Mycolicibacterium smegmatis; Mycobacterium smegmatis ATCC607; OD 600 nm after 12 h at 37 °C; read-out: Antibacterial activity IC50, MS
Method: (§1) The antimicrobial activity was assayed against the Gram-positive bacterial strains Mycobacterium smegmatis ATCC 607 and Staphylococcus aureus ATCC 25923, Gram-negative Escherichia coli ATCC 8739 and Pseudomonas aeruginosa ATCC 9027 and yeast Candida albicans ATCC10231 by liquid growth inhibition in 96-well microplates. Briefly, precultures of the tested microorganisms were made by inoculating 10 mL of medium (LB medium for bacteria and YM medium for fungus) and incubated for 24 h at 37 °C for bacteria or 48 h at 28 °C for fungus. Then, the cell density was adjusted to 10^4−10^5 cfu mL^−1 by the corresponding broth. An aliquot of 200 μL of the microbial suspension was distributed in each well containing 2-fold serial dilution of the tested compounds. The plate was incubated at 37 °C for 12 h for the bacteria or at 28 °C for 48 h for the fungus, and the optical density of each well was measured at 600 nm spectrophotometrically. IC50 values were defined as the concentration of a compound resulting in a 50% decrease in the number of microbial cultures compared to the blank control. The experiment was run in three replicates.

[2] = tested on: Staphylococcus aureus ATCC 25923; test: as above; type: cell-based; settings: Staphylococcus aureus ATCC25923; OD 600 nm after 12 h at 37 °C; read-out: Antibacterial activity IC50, SA
Method: as §1

| IC50 [1] | IC50 [2] | Structure (SMILES) |
| --- | --- | --- |
| 2.2 µM | 1.66 µM | CC1CCC2C(C=CC(C)C2C(=O)c2c(O)c(C3(O)CCC(O)C4OC43)c[nH]c2=O)C1 (stereo not drawn) [Compound 9, apiosporamide] |
| 11.4 µM | 8.97 µM | CC1CCC2C(C=CC(C)C2C(=O)c2c3c(c[nH]c2=O)C2(O)CCC(O)C(O)C2O3)C1 (stereo not drawn) [Compound 3, Arthpyrone F] |
| 19.4 µM | 8.37 µM | CO[C@H]1[C@H](O)CC[C@](O)(c2c[nH]c(=O)c(C(=O)[C@H]3[C@@H]4CC[C@@H](C)C[C@H]4C=C[C@H]3C)c2O)[C@@H]1O [Compound 5, Arthpyrone H] |

Second part, the molecule before the results:

| Structure (SMILES) | IC50 [1] | IC50 [2] |
| --- | --- | --- |
| CO[C@]1(c2c[nH]c(=O)c(C(=O)[C@H]3[C@@H]4CC[C@@H](C)C[C@H]4C=C[C@H]3C)c2O)CC[C@@H](O)[C@H](O)[C@H]1O [Compound 6, Arthpyrone I] | 35.3 µM | 14.1 µM |
| C[C@@H]1CC[C@H]2[C@H](C(=O)c3c(=O)[nH]cc4c5c(oc34)[C@H](O)[C@H](O)CC5)[C@H](C)C=C[C@@H]2C1 [Compound 4, Arthpyrone G] | > 50 µM | 42.8 µM |
| CO/N=C(\C(=O)N[C@@H]1C(=O)N2C(C(=O)O)=C(CSc3nc(=O)c(=O)[nH]n3C)CS[C@H]12)c1csc(N)n1 [Ceftriaxone sodium, reference compound] | < 1 µM | < 1 µM |
